Experiments:
MCP-1 = MCP-1 chemokine secretion in primary human hepatic stellate cells stimulated with TNFα; assay type: cell-based; details: hepatic stellate cells, two donors
Procollagen Iα1 = Procollagen Iα1 secretion (ELISA) in primary human hepatic stellate cells stimulated with TGFβ1; assay type: cell-based; details: hepatic stellate cells, three donors
Col1a1 = Col1a1 gene expression (RT-qPCR) in primary human hepatic stellate cells stimulated with TGFβ1; assay type: cell-based; details: for Col1a1 Fold Expression Relative to Control, Mean: single amino acid
IL-6 [1] = test: LPS-induced IL-6 secretion in primary human monocyte-derived macrophages; details: for IL-6 Measurements, Mean: LPS, baseline subtracted values
MCP1/CCL2 = MCP1/CCL2 secretion by ELISA in primary human hepatocytes with FFA + TNFα; assay type: cell-based
IL-6 [2] = test: IL-6 cytokine secretion in primary human hepatic stellate cells stimulated with TNFα; assay type: cell-based; details: hepatic stellate cells, two donors
TNF-α = test: LPS-induced TNF-α secretion in primary human monocyte-derived macrophages; details: for TNF-α Measurements Mean (baseline subtracted): 0.15 ng/mL LPS
[3] = Donor 2, Conc. 749 μM (baseline)
[4] = Donor 2, Conc. 153 μM (baseline)

N=C(N)NCCC[C@H](N)C(=O)O [Arginine, L-Arginine]
MCP-1 secretion (summary in words) (MCP-1): no significant impact on MCP-1 secretion | procollagen Iα1 secretion (summary in words) (Procollagen Iα1): significantly increased procollagen Iα1 secretion in two of three donors | Col1a1 gene expression (summary in words) (Col1a1; hepatic stellate cells, three donors): did not significantly change Col1a1 gene expression in any donor | Col1a1 Fold Expression Relative to Control, Mean (Col1a1; second donor (Table 27), 1088 μM): 0.99 fold | Col1a1 Fold Expression Relative to Control, Mean (Col1a1; second donor (Table 27), 2720 μM): 1.15 fold | Col1a1 Fold Expression Relative to Control, Mean (Col1a1; second donor (Table 27), 5440 μM): 1.15 fold | Col1a1 Fold Expression Relative to Control, Mean (Col1a1; second donor (Table 29), 1088 μM): 0.95 fold | Col1a1 Fold Expression Relative to Control, Mean (Col1a1; second donor (Table 29), 2720 μM): 0.99 fold | Col1a1 Fold Expression Relative to Control, Mean (Col1a1; second donor (Table 29), 5440 μM): 1.02 fold | LPS-induced IL-6 secretion (summary in words) (IL-6 [1]; Donor 1): increased IL-6 secretion | MCP1/CCL2 secretion (summary in words) (MCP1/CCL2; primary human hepatocytes, two healthy donors): increased MCP1 secretion | IL-6 secretion (summary in words) (IL-6 [2]): no significant effect on IL-6 secretion

NC(=O)CC[C@H](N)C(=O)O [Glutamine, L-Glutamine]
TNF-α Measurements Mean (baseline subtracted) (TNF-α; Donor 1, Conc. 3747 μM): −45.7 | TNF-α Measurements Mean (baseline subtracted) (TNF-α; Donor 1, Conc. 11242 μM): −65.24 | TNF-α Measurements Mean (baseline subtracted) (TNF-α; Donor 1, Conc. 22484 μM): −103.07 | LPS-induced TNF-α secretion (summary in words) (TNF-α; Donor 2): increased TNF-α secretion | TNF-α Measurements Mean (baseline subtracted) (TNF-α; [3]): −9.5E−15 | TNF-α Measurements Mean (baseline subtracted) (TNF-α; Donor 2, Conc. 3747 μM): 9.338 | TNF-α Measurements Mean (baseline subtracted) (TNF-α; Donor 2, Conc. 11242 μM): 20.04 | TNF-α Measurements Mean (baseline subtracted) (TNF-α; Donor 2, Conc. 22484 μM): 11.5 | LPS-induced TNF-α secretion (summary in words) (TNF-α; Donor 3): increased TNF-α secretion | TNF-α Measurements Mean (baseline subtracted) (TNF-α; Donor 3, Conc. 749 μM (baseline)): 0 | TNF-α Measurements Mean (baseline subtracted) (TNF-α; Donor 3, Conc. 3747 μM): 1.936 | TNF-α Measurements Mean (baseline subtracted) (TNF-α; Donor 3, Conc. 11242 μM): 18 | TNF-α Measurements Mean (baseline subtracted) (TNF-α; Donor 3, Conc. 22484 μM): 29.14 | MCP-1 secretion (summary in words) (MCP-1): reduced MCP1 secretion in both donors but was only statistically significant in one of two donors | LPS-induced IL-6 secretion (summary in words) (IL-6 [1]; Donor 1): increased IL-6 secretion | IL-6 Measurements, Mean (IL-6 [1]; Donor 1, Conc. 749 μM (baseline)): 0 | LPS-induced IL-6 secretion (summary in words) (IL-6 [1]; Donor 2): increased IL-6 secretion | IL-6 Measurements, Mean (IL-6 [1]; [3]): 2.37E−15 | IL-6 Measurements, Mean (IL-6 [1]; Donor 2, Conc. 3747 μM): 22.52 | IL-6 Measurements, Mean (IL-6 [1]; Donor 2, Conc. 11242 μM): 63.31 | IL-6 Measurements, Mean (IL-6 [1]; Donor 2, Conc. 22484 μM): 34.39 | LPS-induced IL-6 secretion (summary in words) (IL-6 [1]; Donor 3): significantly increased IL-6 secretion | MCP1 expression relative to Control, Mean (MCP1/CCL2; Donor 1, Conc. 749 μM): 0 | MCP1 expression relative to Control, Mean (MCP1/CCL2; Donor 1, Conc. 3747 μM): −0.8981 | MCP1 expression relative to Control, Mean (MCP1/CCL2; Donor 1, Conc. 11242 μM): −9.001 | MCP1 expression relative to Control, Mean (MCP1/CCL2; Donor 1, Conc. 22484 μM): −21.8392 | MCP1 expression relative to Control, Mean (MCP1/CCL2; Donor 2, Conc. 749 μM): 2.84E−14 | MCP1 expression relative to Control, Mean (MCP1/CCL2; Donor 2, Conc. 3747 μM): −45.0574 | MCP1 expression relative to Control, Mean (MCP1/CCL2; Donor 2, Conc. 11242 μM): −90.6558 | MCP1 expression relative to Control, Mean (MCP1/CCL2; Donor 2, Conc. 22484 μM): −138.873 | IL-6 secretion (summary in words) (IL-6 [2]): significantly reduced IL-6 secretion in both donors

CC(C)C[C@H](N)C(=O)O [Leucine, L-Leucine]
TNF-α Measurements Mean (baseline subtracted) (TNF-α; Donor 1, Conc. 3054 μM): 42.04 | TNF-α Measurements Mean (baseline subtracted) (TNF-α; Donor 1, Conc. 7635 μM): −23.04 | TNF-α Measurements Mean (baseline subtracted) (TNF-α; Donor 1, Conc. 15270 μM): −46.21 | LPS-induced TNF-α secretion (summary in words) (TNF-α; Donor 2): increased TNF-α secretion | TNF-α Measurements Mean (baseline subtracted) (TNF-α; [4]): 0 | TNF-α Measurements Mean (baseline subtracted) (TNF-α; Donor 2, Conc. 3054 μM): 31.74 | TNF-α Measurements Mean (baseline subtracted) (TNF-α; Donor 2, Conc. 7635 μM): 41.98 | TNF-α Measurements Mean (baseline subtracted) (TNF-α; Donor 2, Conc. 15270 μM): 46.69 | MCP-1 secretion (summary in words) (MCP-1): no significant impact on MCP-1 secretion | IL-6 Measurements, Mean (IL-6 [1]; Donor 1, Conc. 153 μM (baseline)): 0 | LPS-induced IL-6 secretion (summary in words) (IL-6 [1]; Donor 2): increased IL-6 secretion | IL-6 Measurements, Mean (IL-6 [1]; [4]): 7.11E−15 | IL-6 Measurements, Mean (IL-6 [1]; Donor 2, Conc. 3054 μM): 29.61 | IL-6 Measurements, Mean (IL-6 [1]; Donor 2, Conc. 7635 μM): 30.46 | IL-6 Measurements, Mean (IL-6 [1]; Donor 2, Conc. 15270 μM): 47.6 | MCP1 expression relative to Control, Mean (MCP1/CCL2; Donor 1, Conc. 153 μM): 5.92E−16 | MCP1 expression relative to Control, Mean (MCP1/CCL2; Donor 1, Conc. 3054 μM): 3.34 | MCP1 expression relative to Control, Mean (MCP1/CCL2; Donor 1, Conc. 7635 μM): 1.896 | MCP1 expression relative to Control, Mean (MCP1/CCL2; Donor 1, Conc. 15270 μM): −1.368 | MCP1 expression relative to Control, Mean (MCP1/CCL2; Donor 2, Conc. 153 μM): −4.7E−15 | MCP1 expression relative to Control, Mean (MCP1/CCL2; Donor 2, Conc. 3054 μM): 16.11 | MCP1 expression relative to Control, Mean (MCP1/CCL2; Donor 2, Conc. 7635 μM): −2.988 | MCP1 expression relative to Control, Mean (MCP1/CCL2; Donor 2, Conc. 15270 μM): −26.6436 | IL-6 secretion (summary in words) (IL-6 [2]): no significant effect on IL-6 secretion

From US11737999B2, “Amino acid compositions and methods for the treatment of post-acute sequelae of COVID-19” (AXCELLA HEALTH INC., priority 2021, dated 2023)
